In US20140128357A1, “METHODS OF PRODUCING AND USING BRASSINOSTEROIDS TO PROMOTE GROWTH, REPAIR AND MAINTENANCE OF SKELETAL MUSCLE AND SKIN” (Rutgers University, priority 2010, published 2014):
Like-named read-outs stand apart in the source and are kept apart here.

How the values were obtained:
[1] = tested on: fully differentiated L6 rat skeletal myotubes; assay: MTT cell viability in L6 myotubes; format: cell-based; settings: up to 25 μM
Protocol: In various aspects, cell viability is measured and the effects of doses of compound and test reagents are tested in cell lines. In some aspects, cell viability was measured by the MTT (3-(4,5-Dimethylthiazol-2-yl)-2,5-diphenyltetrazolium bromide) assay in triplicate (Mosmann et al., J. Immunol. Methods 65:55-63, 1983) and quantified spectrophotometrically at 550 nm using a microplate reader (Molecular Devices, Sunnyvale, Calif.).

[2] = Body composition and blood biochemistry, rats on high-protein diet, 24 d oral HB (Protocol 2); format: in vivo, rat; settings: for Bone mineral content / Fat mass / Lean mass: DEXA
Protocol: Six-week-old male Wistar rats (180-220 g, Charles River Laboratories, MA) were housed in individual chambers in a room maintained at a constant room temperature with 12 h light-dark cycle. Animals had free access to food and water. Animals were allowed to adapt to new conditions for 7 d and handling the animals was carried out daily during this time to reduce the stress of physical manipulation. Animals were randomized into groups according to bodyweight 1 d prior to dosing.
Protocol 2: Three groups of Wistar rats (n=8), fed a high-protein diet containing 39.4% protein, 10.0% fat, 4.3% fiber, and 37.0% carbohydrates, resulting in 3.93 kcal/g energy value (#5779 diet, Testdiet/Purina, Richmond, Ind.), were gavaged daily for 24 d with 1 ml of vehicle (5% DMSO in corn oil), 20 or 60 mg/kg HB. All procedures and measurements followed protocol 1.
Blood samples were taken from overnight-fasted animals by heart puncture, collected in EDTA-coated tubes, centrifuged 1,500 g for 20 min, and separated plasma was stored at −80° C. until analysis. Glucose was measured in blood samples using a Lifescan glucometer (Johnson and Johnson, New Brunswick, N.J.). […] Plasma triglycerides and total cholesterol were measured by enzymatic colorimetric assays (Wako Diagnostics, Richmond, Va.). Total testosterone in plasma samples was quantified by an ELISA assay (DRG Diagnostics, Marburg, Germany).

[3] = tested on: orchiectomized (ORX) Wistar rats; format: in vivo, rat; settings: for Glans penis weight: listed as HB
Protocol: Protocol 3: Four-week-old sham-operated (sham, n=6) or orchiectomized (ORX, n=24) Wistar rats (Charles River Laboratories, MA) were subject to a 10-d Hershberger assay (surgically castrated peri-pubertal adult model) under the following experimental conditions: sham, ORX (vehicle), ORX (20 mg/kg HB orally), ORX (60 mg/kg HB orally), and ORX (0.4 mg/kg testosterone propionate subcutaneously, serving as a positive control for the assay). All procedures and measurements followed protocol 1, except no body composition measurements were taken. Limb grip strength was measured for control animals and animals receiving 60 mg/kg HB using a digital force gauge (Wagner Instruments model FDV5) by Product Safety Laboratories (Dayton, N.J.). After the rats were allowed to grip the screen with paws, the animals were quickly pulled until the paws released from the screen, and the required release force was recorded. Three trials on each animal were performed in triplicate, and significance was determined using Student's t test (p<0.05). In addition to the gastrocnemius muscle, androgen-sensitive tissues (ventral prostate, seminal vesicles, bulbocavernosus/levator ani muscle complex, glans penis, and Cowper's gland) were dissected out and weighed.
The muscle samples for histochemical analysis were taken from the middle section of the mixed-fiber gastrocnemius muscle of the castrated animals treated according to protocol 4 (described herein above) to allow for the observation of differences in fiber type distribution and cross-section area associated with ORX and HB treatments. Serial transverse cryosections (10 μm) were prepared from each muscle and were analyzed for myofibrillar adenosine triphosphatase (mATPase) histochemistry after alkaline (pH=9.5) preincubation. Fiber cross-section area and enzyme activity levels were determined from digitized images of the muscle cross-sections that were stored as gray-level pictures using ImageJ software (National Institutes of Health, Bethesda, Md.). […]

[4] = tested on: orchiectomized (ORX) Wistar rats; assay: 10-d Hershberger assay in ORX rats, subcutaneous HB (Protocol 4); format: in vivo, rat; settings: for increase in gastrocnemius muscle mass: subcutaneous
Protocol: Protocol 4: Four-week-old sham-operated (sham, n=6) or orchiectomized (ORX, n=24) Wistar rats (Charles River Laboratories, MA) were subject to a 10-d Hershberger assay (surgically castrated peri-pubertal adult model) under the following experimental conditions: sham, ORX (vehicle), ORX (0.4 mg/kg HB subcutaneously), ORX (4 mg/kg HB subcutaneously), and ORX (0.4 mg/kg testosterone propionate subcutaneously, serving as a positive control for the assay). All procedures and measurements followed protocol 1. […]

[5] = tested on: gastrocnemius muscle mRNA (insulin signaling pathway, myogenic transcription factors); assay: Gene expression in gastrocnemius muscle, insulin signaling PCR array and RT-PCR; format: in vivo, rat; settings: 60 mg/kg oral 24 d
Protocol: The body weight of each animal and the total amount of food consumed (accounted for spillage) were recorded every 2 d for the duration of the experiment. At the end of the experiment, blood was collected by heart puncture after CO2 inhalation and animal body composition was assessed by DEXA dual-energy X-ray absorptiometry analysis using a Lunar Prodigy Densitometer (GE Healthcare, Waukesha, Wis.). At necropsy, tissue weights were recorded. Tissue samples were collected by snap-freezing in liquid nitrogen and stored at −80° C. for further studies. Total RNA was isolated using Trizol, its quantity and purity were determined using a NanoDrop (Nanodrop Technologies, Wilmington, Del.).
Pooled RNA samples obtained from frozen skeletal muscle (gastrocnemius muscle biopsies of vehicle- (Ctr) and HB-treated animals) were used in a rat insulin signaling PCR array to measure mRNA response to HB. […] However, the magnitude of the differences varied (FIG. 11A).

[6] = ORX rats, 20 mg/kg oral daily 10 d
[7] = ORX rats, 60 mg/kg oral daily 10 d
[8] = ORX rats, 60 mg/kg oral per day 10 days
[9] = 0.4 mg/kg subcutaneous daily 10 d
[10] = 4 mg/kg subcutaneous daily 10 d
[11] = pooled gastrocnemius RNA, PCR array

Which results are given for `CC[C@@H](C(C)C)[C@H](O)[C@@H](O)[C@@H](C)[C@H]1CC[C@H]2[C@@H]3COC(=O)[C@H]4C[C@H](O)[C@H](O)C[C@]4(C)[C@H]3CC[C@]12C` [Compound 1, (22S,23S,24S)-2α,3α,22,23-tetrahydroxy-24 ethyl-β-homo-7-oxo-5α-cholestane-6-one]?
toxicity to L6 myotubes (MTT assay and cytological observations) [1]: no toxicity; Body weight ([2]; 20 mg/kg oral daily 24 d): 337.6 ± 6.4 g; Body weight gain ([2]; 20 mg/kg oral daily 24 d): 98.3 ± 5.2 g; Gastrocnemius muscle ([2]; 20 mg/kg oral daily 24 d): 1.98 ± 0.01 g; Bone mineral content ([2]; 20 mg/kg oral daily 24 d): 7.5 ± 0.2 g; Fat mass ([2]; 20 mg/kg oral daily 24 d): 68.6 ± 3.1 g; Lean mass ([2]; 20 mg/kg oral daily 24 d): 246.8 ± 7.4 g; Body weight ([2]; 60 mg/kg oral daily 24 d): 335.8 ± 5.1 g; Body weight gain ([2]; 60 mg/kg oral daily 24 d): 91.1 ± 3.2 g; Gastrocnemius muscle ([2]; 60 mg/kg oral daily 24 d): 2.17 ± 0.03 g; Bone mineral content ([2]; 60 mg/kg oral daily 24 d): 7.4 ± 0.1 g; Fat mass ([2]; 60 mg/kg oral daily 24 d): 61.2 ± 3.8 g; Lean mass ([2]; 60 mg/kg oral daily 24 d): 258.6 ± 2.7 g; increase in gastrocnemius muscle mass ([3]; ORX rats, 20 mg/kg oral 10 d): 13.8%; Bulbocavernosus/levator ani weight [3, 6]: 109.2 ± 8.6 mg; Cowper's gland weight [3, 6]: 11.2 ± 0.7 mg; Seminal vesicles weight [3, 6]: 37.3 ± 3.5 mg; Ventral prostate weight [3, 6]: 26.0 ± 2.5 mg; Glans penis weight ([3]; ORX rats, 20 mg/kg oral daily 10 d, 20 mg/kg): 55.3 ± 1.7 mg; increase in gastrocnemius muscle mass ([3]; ORX rats, 60 mg/kg oral 10 d): 10.3%; Bulbocavernosus/levator ani weight [3, 7]: 137.7 ± 9.9 mg; Cowper's gland weight [3, 7]: 12.5 ± 1.1 mg; Seminal vesicles weight [3, 7]: 34.7 ± 3.3 mg; Ventral prostate weight [3, 7]: 23.0 ± 2.4 mg; Glans penis weight ([3]; ORX rats, 60 mg/kg oral daily 10 d, 60 mg/kg): 59.6 ± 1.6 mg; Change in grip strength of lower extremities [3, 8]: 0.0851 ± 0.0197 kg; change in grip strength for front limbs [3, 8]: 0.2711 ± 0.0660 kg; increase in total number of type IIa and type IIb fibers ([3]; gastrocnemius, 20 or 60 mg/kg per day 10 d, independent of dose): approximately 60%; androgenic activity in the Hershberger assay ([3]; rat, in vivo): very low androgenic activity; Bulbocavernosus/levator ani weight [4, 9]: 131.3 ± 7.1 mg; Cowper's gland weight [4, 9]: 11.3 ± 0.5 mg; Glans penis weight [4, 9]: 50.7 ± 1.9 mg; Seminal vesicles weight [4, 9]: 29.0 ± 3.1 mg; Ventral prostate weight [4, 9]: 18.3 ± 1.2 mg; Bulbocavernosus/levator ani weight [4, 10]: 147.5 ± 6.9 mg; Cowper's gland weight [4, 10]: 10.5 ± 0.3 mg; Glans penis weight [4, 10]: 56.3 ± 3.3 mg; Seminal vesicles weight [4, 10]: 30.2 ± 1.2 mg; Ventral prostate weight [4, 10]: 23.2 ± 1.2 mg; increase in gastrocnemius muscle mass ([4]; one-fold dose of positive control (0.4 mg/kg)): 2.8%; increase in gastrocnemius muscle mass ([4]; ten-fold dose of positive control (4 mg/kg)): 9.1%; expression of EIF2B1 [5]: No changes; MYF5 mRNA upregulation ([5]; RT-PCR (FIG. 11C)): 1.3 fold; MYF6 mRNA upregulation ([5]; RT-PCR (FIG. 11C)): 1.3 fold; MYOD1 mRNA upregulation ([5]; RT-PCR (FIG. 11C)): 2.1 fold; MYOG (myogenin) mRNA upregulation ([5]; RT-PCR (FIG. 11C)): 1.7 fold; ADRA1D mRNA upregulation [5, 11]: 6.5 fold; FBP2 mRNA upregulation [5, 11]: 4.5 fold; IGF-2 mRNA upregulation [5, 11]: 1.4 fold; IGFBP1 mRNA upregulation [5, 11]: 2.5 fold; SREBP-1 mRNA upregulation [5, 11]: 2.5 fold
